# Experimental data taken from ChEMBL document CHEMBL3507680, “University of Dundee, Gates Library screen for HepG2 cell viability”.
# Test: Human HepG2 cell viability assay in 384 well format
# Type: toxicity, cell-based
# Design: dose 125 nL, time 70.5 hour; cytotoxicity at 70.5 h: concentration not given beside the values
# Details: HepG2 cells, read-out: Inhibition
row,Structure (SMILES),cytotoxicity at 70.5 h [%]
1,CC(C)Cn1ccc2c(NC(=O)c3n[nH]c4c3CCC4)cccc21,5.24
2,O=C1N(c2ccc(Cl)cc2)Cc2nc(=O)[nH]n21,-11.3
3,N#Cc1cccc(CNc2ccc(F)cc2OCCO)c1,-6.47
4,O=C(COc1ccccc1F)NCCC(O)c1ccoc1 (configuration not stated),-4.07
5,Cc1nnc(N2CCCC3(CN(Cc4cnn(C)c4)CCO3)C2)o1 (configuration not stated),-5.09
6,O=C(Cc1ccn[nH]1)N1CCc2cc(Br)sc2C1,-6.46
7,O=C(CCNc1ncc2c(n1)CCN2c1ccccc1)N1CCCC1,-9.59
8,Cc1ccc(C(=O)NS(=O)(=O)Cc2ccccc2)cc1S(C)(=O)=O,-2.97
9,Cc1ncsc1C(=O)NC1CCN(CCC(=O)Nc2ccccc2)CC1,-1.32
10,CCN(C(=O)c1cc2c([nH]c1=O)CCCC2=O)C1CCCCC1,-5.73
11,NC(=O)CN(C(=O)C1Cc2cc(Cl)ccc2O1)C1CCCC1 (configuration not stated),24.1
12,COc1ccc2[nH]c(=O)c(CN(C)C(C)c3ccccn3)cc2c1 (configuration not stated),-7.2
13,CC(=O)N1CCC(c2cc3c(ncn3C)c(-c3cnn(C)c3)n2)CC1,-8.6
14,Cn1cnc2c1C(COCC1CCOCC1)CN(C1CCOCC1)C2 (configuration not stated),-25.6
15,Cc1noc(C)c1CNS(=O)(=O)N(C)Cc1ccc(Cl)cc1,-5.95
16,Cc1ncnc(N2CCN(C(=O)C3CC4(CCNCC4)CN3)CC2)c1C (configuration not stated),13.5
17,CN1C(=O)CC(C(=O)O)C12CCN(c1ccc3ccccc3n1)CC2 (configuration not stated),-4.07
18,Cc1cc(C2CCCN2CCCS(=O)(=O)c2ccccc2)no1 (configuration not stated),-4.85
19,CO[C@H]1C(=O)N(C)C2(CCNCC2)[C@@H]1C(=O)Nc1ccccc1,-10.2
20,O=C(NS(=O)(=O)c1ccccc1)c1ccccc1F,-4.29
21,COC(=O)C1CCN(c2cc(C)nc(-c3ccncc3)n2)CC1,-8.27
22,Cc1ccc(CNCc2nccn2C)c(OCC2CC2)c1,7.03
23,Cc1cccc(CNC(=O)CC2CCN(S(C)(=O)=O)CC2)n1,-4.65

row,Structure (SMILES),cytotoxicity at 70.5 h [%]
1,O=C(CCC(=O)N1CCC(c2noc3cc(F)ccc23)CC1)NC1CC1,13.1
2,CC1N(CC2CC2)C(=O)COC12CCN(C(=O)c1cscn1)CC2 (configuration not stated),-5.04
3,COc1cc(N2C[C@H]3OCC[C@H]3[C@H](C(=O)N3CCCC3)C2)ncn1,27.7
4,CCN(CC)c1ccc(CNC(=O)c2cnc(C)cn2)cn1,-4.04
5,CNS(=O)(=O)c1cc(C)c2[nH]c(=O)cc(C)c2c1,-16.4
6,Cn1ccc(C(=O)N2CCc3[nH]nc(Nc4ccccc4)c3C2)n1,1.75
7,COC(=O)CN1CCCN(C(=O)CCOc2cccc(C)c2C)CC1,-5.13
8,COc1ccc(F)cc1C(=O)N1C[C@H]2C[C@H](OC)C[C@H]2C1,-6.25
9,CCS(=O)(=O)N(C)C1CCN(C(=O)c2ccc(C)c(C)c2)CC1,-8.23
10,CCNc1ncc(C(=O)NCC2OCCc3ccccc32)cn1 (configuration not stated),-3.21
11,CC(=O)N1CCCC(c2ccc(C(N)=O)cn2)C1 (configuration not stated),-8.88
12,CN1CCC(NC(=O)CCCc2cc(Cl)sc2Cl)C1=O (configuration not stated),-9.29
13,CC1=N[C@@]2(CC[C@@H]3CN(CC(C)C)C[C@@H]32)C(=O)N1,-4.43
14,CN(C)C1CCN(Cc2cnc(S(C)(=O)=O)n2CC2CCCCC2)C1 (configuration not stated),-7.41
15,O=C(c1cocn1)N1CCC2(CC1)CC(Oc1ccccn1)CO2 (configuration not stated),-8.48
16,CNC(=O)[C@@]12CCO[C@@H]1CCN(S(=O)(=O)c1ccc(C)cc1)C2,-4.45
17,Cc1nc(C)c(CC(=O)NCc2cccnc2OC2CCCC2)c(=O)[nH]1,-4.62
18,CS(=O)(=O)N1CCCC12CCCN(C(=O)c1ccno1)C2 (configuration not stated),-9.08
19,CC(=O)NCC1CCN(C(=O)NCCc2ccc3c(c2)OCO3)CC1,-17.3
20,COc1ccc2c(c1)s/c(=N\C(=O)CSCC(=O)Nc1nccs1)n2C,16.4
21,COc1ccccc1C(O)Cn1cc(C(=O)NCc2ccco2)nn1 (configuration not stated),0.751
22,O=C(CCc1ccc(Cl)s1)NCc1nnc2n1CCCCC2,-15.9
23,COc1ccc(-n2ncc3c2NC(=O)CSC3C(C)C)cc1 (configuration not stated),-3.9

row,Structure (SMILES),cytotoxicity at 70.5 h [%]
1,CN(C)C(=O)N1CCN(CCCOc2ccccc2)[C@H]2CS(=O)(=O)C[C@H]21,-5.64
2,CCN(Cc1csc(CS(C)(=O)=O)n1)c1cccc(F)c1,-7.29
3,O=C(NCCc1ccncc1)c1ccc(N2CCOCC2)cc1,4.27
4,COc1ccc(C(=O)NCCCNc2ncccn2)cc1F,3.94
5,CC(=O)N1CCC(NC(=O)N2CCCC2c2ccsc2)CC1 (configuration not stated),6.84
6,Cc1n[nH]c(C)c1CC(=O)NCCc1ccccc1,14.3
7,CCc1nc(C)sc1CN1CC[C@](O)(CC)[C@H](O)C1,-6.34
8,O=C(c1ccccc1)C1CCN(c2cncc(-n3cccn3)n2)CC1,1.36
9,O=C(CNCCn1cccn1)NCC1(c2ccccc2)CCOCC1,-7.33
10,Cc1cc(F)ccc1N1CCCC(NC2CCOCC2)C1=O (configuration not stated),31.7
11,CC(=O)N1CCCN(C(=O)NC(C)Cn2ccnc2)CC1 (configuration not stated),-4.31
12,CCC(=O)N1CCC(Oc2ccc(C(=O)NCCN(C)C)cc2Cl)CC1,7.41
13,N#CCCN(CC1CC1)Cn1cc(Cl)cn1,34.6
14,CC(C)c1noc(CN2CCC3(CCCO3)CCC2=O)n1 (configuration not stated),-0.624
15,CN(C)C(=O)Cc1ccccc1NCc1nc(Cc2ccccc2)no1,-0.0229
16,CC(C)=CCN1CCN(CCCOc2ccccc2)[C@H]2CS(=O)(=O)C[C@H]21,-4.88
17,O=C(C1CCCC1)N1CCC(C2CCN(Cc3ccc(Cl)cc3)C2)CC1 (configuration not stated),-2.34
18,c1ccc(-n2cc(CNCC3CCCN3c3cccnn3)cn2)cc1 (configuration not stated),-5.35
19,Cc1nc2c(c(C)c1CC(=O)Nc1ccc(Cl)cc1)c(=O)[nH]n2C,-3.48
20,O=S(=O)(C1CC1)N1CCc2c(CN3CCOCC3)cncc2C1,-2.38
21,CNC(=O)[C@@H](CC(C)C)N1CCC[C@H]1C(=O)N(C)Cc1cccnc1,-6.49
22,CCc1cnc(NCc2ccccc2Cn2cccn2)nc1,0.071
23,Cc1noc(C)c1CN1C(=O)[C@H]2CC[C@@H]1CN(Cc1ncc[nH]1)C2,-0.471

row,Structure (SMILES),cytotoxicity at 70.5 h [%]
1,CCn1cnnc1CN(C)C(=O)c1cc(COc2cccc(F)c2)[nH]n1,10.8
2,CC(c1ccco1)n1cc(-c2cc(CN3CCCC3)cs2)nn1 (configuration not stated),-0.331
3,Cc1ccc(F)c(C(=O)N2CCN(S(C)(=O)=O)[C@@H](C)C2)c1,-3.67
4,Cc1cc(C)n(C2CN(Cc3ccc(C(=O)N4CCCC4)cc3)C2)n1,-1.2
5,O=C1NCCN(Cc2cccnc2)C1CC(=O)N1CCc2n[nH]cc2C1 (configuration not stated),-0.172
6,CCC(C(=O)NCc1ccncc1)N(c1ccc(OC)cc1)S(C)(=O)=O (configuration not stated),-4.69
7,O=S1(=O)C[C@@H]2[C@H](C1)N(Cc1cc(F)cc(F)c1)CCN2CCO,-1.64
8,CCC(C)N(Cc1cccnc1)C(=O)CCSC (configuration not stated),-8.8
9,COc1ccc(C(=O)N2CCCC2c2ccco2)cc1OC (configuration not stated),-12.1
10,CCOc1cc(CNc2cc(-c3nc(C)no3)ccn2)ccc1OC,1.28
11,CC(=O)N1C[C@H]2C3(CCN(S(C)(=O)=O)CC3)CC[C@@]2(C(=O)N(C)C)C1,-8.99
12,COCc1cc(CNC(=O)c2cccc3c2OCC3)n[nH]1,-5.24
13,O=C1CCC2(CCCN(CCn3cc(Cl)cn3)C2)CN1C1CCCC1 (configuration not stated),-19.7
14,CCc1cccc(NC(=O)CCC(=O)N(C)Cc2nc(C)c[nH]2)c1,2.2
15,COc1cc(-c2nc(N)n[nH]2)cc(OC)c1OC,-8.57
16,CCOCCN1CCO[C@H]2[C@H](OCc3ccccn3)CC[C@@H]21,-11
17,O=C(Nc1cccc(CNCc2ccsc2)c1)C1CC1,7.14
18,CS(=O)(=O)NCCC1CCCN(Cc2ccccc2F)C1 (configuration not stated),-7.9
19,CC(C)(C)NC(=O)NC(=O)CNC(C)(C)c1ccc2c(c1)OCCO2,-16.2
20,O=C(c1ccc(-n2cccn2)nc1)N1CCCC(c2cnccn2)C1 (configuration not stated),-4.09
21,COCCc1nnc(NC(=O)CCCc2ccccc2)o1,-6.03
22,CCOCC1CN(C(=O)c2cccnc2)Cc2cnn(C)c21 (configuration not stated),-9.4
23,CC(C)[C@H]1CN(Cc2ccccn2)C[C@@H]1NS(=O)(=O)C1CC1,-3.34

row,Structure (SMILES),cytotoxicity at 70.5 h [%]
1,CC(O)C1CCN(c2cc(Cl)ccc2C#N)CC1 (configuration not stated),-14.2
2,c1ccc(Cc2cncc(C3CCCN3C3CCOCC3)n2)cc1 (configuration not stated),-6.45
3,Cc1ncsc1C(=O)NCCNc1cnccn1,-3.47
4,Cc1cc(C)n(CC2CCCCN2CCc2ccncc2)n1 (configuration not stated),4.66
5,O=C(CCSc1ccccc1F)NCc1cccnc1,-8.87
6,Cc1nc(Nc2nnc(C)s2)cc(C2CCCN2)n1 (configuration not stated),-6.91
7,CSCc1cccc(S(=O)(=O)N2CCCC2)c1,-6.64
8,CC(=O)N1CC(=O)N(c2ccccc2)CC12CCN(CC1CC1)C2 (configuration not stated),7.19
9,Cc1cc(C)n(-c2ccc(CNCc3cccc(C#N)c3)cn2)n1,-12.6
10,Cc1cc(C(F)(F)F)nc(C2(C)CCCN2CC(N)=O)n1 (configuration not stated),11.5
11,CC(=O)NCCc1ccc(S(=O)(=O)Nc2ccc(C)c(F)c2)s1,-5.64
12,COc1ccc(-c2nc3c([nH]2)CCCNC3=O)cc1OC,4.81
13,Cc1nc(C)n(CC2CCCN2Cc2cn3c(C)cccc3n2)n1 (configuration not stated),-4.2
14,COc1ccc(-c2noc([C@@H]3C[C@@H](O)CN3C3CCOCC3)n2)cc1,41.8
15,COCC(=O)N1CCCC1c1nccnc1Nc1nc(C)cs1 (configuration not stated),-7.14
16,CN(c1cccc2ccccc12)S(=O)(=O)c1cc(C(=O)O)cs1,-0.615
17,CNC(=O)c1cc2c(nc1NCC(C)C)CCN(c1ccncn1)CC2,-0.746
18,CN(CCCOc1ccccc1Cl)C(=O)CN1C(=O)CCNC1=O,-3.2
19,O=C(c1ccc[nH]1)N1CCn2cc(Cn3cncn3)nc2C1,-9.02
20,CN(C)C[C@]12COC[C@H]1CN(C(=O)Cc1ccc3c(c1)OCO3)C2,-9.79
